How the values were obtained:
[1] = tested on: RBL-1 leukemia cells (Sf3b family members); experiment: Splice isoform biomarker qRT-PCR in rat RBL-1 leukemia cells; type: cell-based; settings: 1 μM, 4 hr; different lots of Rebecsinib
Method: For quantitative analysis of splice isoform expression, RNA editing rates, and whole gene expression by qRT-PCR, cells or tissue fragments were harvested in RNA lysis buffer and total RNA was extracted using RNeasy mini or micro extraction kits (QIAGEN, Germantown, MD) following the manufacturer's protocol including a DNase incubation step to digest any trace genomic DNA present. Levels of ADAR1 variants and LSC-specific transcripts were quantified by qRT-PCR as previously described.^14 RNA-editing site-specific qRT-PCR (RESSqPCR) was performed for variants in AZIN1 transcripts.^53 Additional species-specific primers were also designed to quantify intron retention rates in cells treated with Rebecsinib as a biomarker of response to RNA splicing modulation. […] Relative mRNA expression values were calculated using the 2^−ΔCT method, with normalization to untreated or vehicle-treated controls.^54
For multi-species biomarker development and transcript variant-specific qRT-PCR experiments, human AML cell lines KG-1a, MOLM-13, and HL-60, and rat leukemia cells RBL-1 were grown to confluence and treated with 1 μM Rebecsinib for 4 hr. Cells were collected and lysed in Qiagen RNA lysis buffer, and analyzed using the species-specific primers and qRT-PCR procedures described above.

ADAR1p150 = ADAR1p150 protein by intracellular flow cytometry in sAML50261 engrafted mice; type: in vivo, human cells in mice; settings: human HSC and HPC, spleens of sAML50261 engrafted mice, vs vehicle
Method: FIG. 30D illustrates a mean fluorescence intensity (MFI) of ADAR1p150 protein levels in human HSCs (CD45^+CD34^+CD38^−Lin^−) and HPCs (CD45^+CD34^+CD38^+Lin^−) from the spleens of sAML50261 engrafted mice treated with Rebecsinib or vehicle;
Flow cytometry for stem and progenitor cell surface antibody staining was performed as previously described.^14 For phospho-flow, a subset of samples was fixed and permeabilized, then blocked and stained with APC-conjugated ADAR1p150 antibody (cat ab269444, 1:25) and pSTAT3 APC (cat 17-9033-42, 1:10) (Table S2). Fractions were analyzed with the BD LSR FORTESSA™ (Sanford Consortium for Regenerative Medicine Stem Cell Core) and FLOWJO™ software (TreeStar, Ashland, OR).
In humanized mouse models, sAML cells (CD34^+) from two unique […] patient samples that were splicing factor mutated or unmutated were utilized, including sAML50261 and sAML2008-5.^14 For in vivo efficacy and therapeutic index studies, sAML CD34^+ cells, or normal human cord blood-derived or aged bone marrow-derived HSPCs (CD34^+), were transplanted (50,000-200,000 cells per mouse) intrahepatically into neonatal Rag2^−/−γc^−/− mice, or intravenously into adult NSG-SGM3 mice (Jackson Laboratories, Bar Harbor, ME). A subset of experiments was performed with normal aged bone marrow cells that were transduced with the lentiviral ADAR1 nanoluc-GFP reporter vector prior to transplant. […]

CC[C@H](OC)[C@@H](C)[C@H]1O[C@@H]1[C@@H](O)[C@H](C)/C=C/C=C(\C)[C@H]1OC(=O)C[C@H](O)CC[C@@](C)(O)[C@@H](OC(C)=O)/C=C/[C@@H]1C [Rebecsinib]
intron retention in Sf3b family members [1]: rapidly induced | ADAR1p150 protein isoform levels (ADAR1p150): significantly decreased ADAR1p150 protein isoform levels
